From patent US20250230193A1, “CYCLIC COMPOUND HAVING SELECTIVE KRAS INHIBITORY EFFECT ON HRAS AND NRAS” (CHUGAI SEIYAKU KABUSHIKI KAISHA, priority 2022, published 2025)
*1 amine or outer side, *2 acyl side, *3 side chain or, on linkers, in order; H or OH if unused. Where a SMILES comes first, the peptide text is derived from it. Bridges are numbered along the chain shown (N, C = ends). [ ]: non-standard residue; d: D form. The star is where a group is joined. hPhe(3-Cl-4-CF3) = N[C@@H](CCc1ccc(C(F)(F)F)c(Cl)c1)C(=O)O; NPrPhe(4-CF3) = CCCN[C@@H](Cc1ccc(C(F)(F)F)cc1)C(=O)O; Pro(4-spirocPr) = O=C(O)[C@@H]1CC2(CC2)CN1; Abu(4,4,4-F3) = N[C@@H](CC(F)(F)F)C(=O)O; NMeGly(cPent) = CN[C@H](C(=O)O)C1CCCC1; X46 = CC1(C)CN([*:1])[C@@H]1C(=O)[*:2]; Gly(cPent) = N[C@H](C(=O)O)C1CCCC1; Hyp = O=C(O)[C@@H]1C[C@@H](O)CN1; Gly(cBu) = N[C@H](C(=O)O)C1CCC1; NMeD = CN[C@@H](CC(=O)O)C(=O)O; NMeL = CN[C@@H](CC(C)C)C(=O)O; X14 = N#CCN(CC(=O)[*:2])[*:1]; Pip = O=C(O)[C@@H]1CCCCN1; Morpholide = C1CN(*)CCO1; NMeA = CN[C@@H](C)C(=O)O; Ac5c = NC1(C(=O)O)CCCC1; Aze = O=C(O)[C@@H]1CCN1; NcPrGly = O=C(O)CNC1CC1; Abu = CC[C@H](N)C(=O)O; NPrGly = CCCNCC(=O)O; Sar = CNCC(=O)O

Assays:
[1] = target: GDP-bound HRAS wild-type protein (Homo sapiens, UniProt P01112); assay: Binding to HRAS by surface plasmon resonance (SPR), Single Cycle Kinetics; conditions: KD ratio HRAS/KRAS, SPR
Sequence of GDP-bound HRAS wild-type protein (P01112 whole entry): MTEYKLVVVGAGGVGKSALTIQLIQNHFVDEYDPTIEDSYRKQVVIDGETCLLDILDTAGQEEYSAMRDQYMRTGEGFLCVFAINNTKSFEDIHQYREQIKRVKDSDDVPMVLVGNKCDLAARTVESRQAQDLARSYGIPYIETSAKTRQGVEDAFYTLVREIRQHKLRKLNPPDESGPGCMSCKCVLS

[2] = target: GDP-bound NRAS wild-type protein (Homo sapiens, UniProt P01111); assay: Binding to NRAS by surface plasmon resonance (SPR), Single Cycle Kinetics; conditions: KD ratio NRAS/KRAS, SPR
Sequence of GDP-bound NRAS wild-type protein (P01111 whole entry): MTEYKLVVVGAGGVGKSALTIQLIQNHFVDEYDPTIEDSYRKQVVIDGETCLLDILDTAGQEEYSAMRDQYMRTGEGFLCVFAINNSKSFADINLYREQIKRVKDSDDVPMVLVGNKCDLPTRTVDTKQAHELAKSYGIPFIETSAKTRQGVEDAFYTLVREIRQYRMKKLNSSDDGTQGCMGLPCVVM

Row | SMILES | HRAS/KRAS (ratio of KD for GDP-bound HRAS wild-type to KD for KRAS) [1] | NRAS/KRAS (ratio of KD for GDP-bound NRAS wild-type to KD for KRAS) [2]
1 | CCCN1C(=O)[C@@H]2CCN2C(=O)[C@H](C)N(C)C(=O)[C@H](CC)NC(=O)[C@H](CC(C)C)N(C)C(=O)C[C@@H](C(=O)N2CCOCC2)N(C)C(=O)[C@H](C2CCCC2)N(C)C(=O)C2(CCCC2)NC(=O)[C@@H]2CCCN2C(=O)[C@H](CCc2ccc(C(F)(F)F)c(Cl)c2)NC(=O)CN(C)C(=O)[C@@H]1Cc1ccc(C(F)(F)F)cc1 [PP0269] ([NMeL][Abu][NMeA][Aze][NPrPhe(4-CF3)][Sar][hPhe(3-Cl-4-CF3)]P[Ac5c][NMeGly(cPent)][NMeD]-Morpholide; lactam N-11) | B (a compound having 3 or more and less than 10 is denoted as B) | C (A compound having a KD ratio of 0.1 or more and less than 3 is denoted as C)
2 | CCCN1C(=O)[C@@H]2CCN2C(=O)[C@H](C)N(C)C(=O)[C@H](CC(F)(F)F)NC(=O)[C@H](CC(C)C)N(C)C(=O)C[C@@H](C(=O)N2CCOCC2)N(C)C(=O)[C@H](C2CCCC2)N(C)C(=O)C2(CCCC2)NC(=O)[C@@H]2CCCN2C(=O)[C@H](CCc2ccc(C(F)(F)F)c(Cl)c2)NC(=O)CN(C)C(=O)[C@@H]1Cc1ccc(C(F)(F)F)cc1 [PP0270] ([NMeL][Abu(4,4,4-F3)][NMeA][Aze][NPrPhe(4-CF3)][Sar][hPhe(3-Cl-4-CF3)]P[Ac5c][NMeGly(cPent)][NMeD]-Morpholide; lactam N-11) | B (a compound having 3 or more and less than 10 is denoted as B) | C (A compound having a KD ratio of 0.1 or more and less than 3 is denoted as C)
3 | CCCN1C(=O)[C@@H]2CCN2C(=O)[C@H](C)N(C)C(=O)[C@H](C2CCC2)NC(=O)[C@H](CC(C)C)N(C)C(=O)C[C@@H](C(=O)N2CCOCC2)N(C)C(=O)[C@H](C2CCCC2)N(C)C(=O)C2(CCCC2)NC(=O)[C@@H]2CCCN2C(=O)[C@H](CCc2ccc(C(F)(F)F)c(Cl)c2)NC(=O)CN(C)C(=O)[C@@H]1Cc1ccc(C(F)(F)F)cc1 [PP0271] ([NMeL][Gly(cBu)][NMeA][Aze][NPrPhe(4-CF3)][Sar][hPhe(3-Cl-4-CF3)]P[Ac5c][NMeGly(cPent)][NMeD]-Morpholide; lactam N-11) | B (a compound having 3 or more and less than 10 is denoted as B) | C (A compound having a KD ratio of 0.1 or more and less than 3 is denoted as C)
4 | CCCN1C(=O)[C@@H]2CCN2C(=O)[C@H](C)N(C)C(=O)[C@H](C2CCCC2)NC(=O)[C@H](CC(C)C)N(C)C(=O)C[C@@H](C(=O)N2CCOCC2)N(C)C(=O)[C@H](C2CCCC2)N(C)C(=O)C2(CCCC2)NC(=O)[C@@H]2CCCN2C(=O)[C@H](CCc2ccc(C(F)(F)F)c(Cl)c2)NC(=O)CN(C)C(=O)[C@@H]1Cc1ccc(C(F)(F)F)cc1 [PP0272] ([NMeL][Gly(cPent)][NMeA][Aze][NPrPhe(4-CF3)][Sar][hPhe(3-Cl-4-CF3)]P[Ac5c][NMeGly(cPent)][NMeD]-Morpholide; lactam N-11) | B (a compound having 3 or more and less than 10 is denoted as B) | C (A compound having a KD ratio of 0.1 or more and less than 3 is denoted as C)
5 | CCCN1C(=O)[C@@H]2CCN2C(=O)CN(C2CC2)C(=O)[C@H]([C@@H](C)CC)NC(=O)[C@H](CC(C)C)N(C)C(=O)C[C@@H](C(=O)N2CCOCC2)N(C)C(=O)[C@H](C2CCCC2)N(C)C(=O)C2(CCCC2)NC(=O)[C@@H]2CCCN2C(=O)[C@H](CCc2ccc(C(F)(F)F)c(Cl)c2)NC(=O)CN(C)C(=O)[C@@H]1Cc1ccc(C(F)(F)F)cc1 [PP0273] ([NMeL]I[NcPrGly][Aze][NPrPhe(4-CF3)][Sar][hPhe(3-Cl-4-CF3)]P[Ac5c][NMeGly(cPent)][NMeD]-Morpholide; lactam N-11) | B (a compound having 3 or more and less than 10 is denoted as B) | C (A compound having a KD ratio of 0.1 or more and less than 3 is denoted as C)
6 | CCCN1CC(=O)N2CC[C@H]2C(=O)N(CCC)[C@@H](Cc2ccc(C(F)(F)F)cc2)C(=O)N(C)CC(=O)N[C@@H](CCc2ccc(C(F)(F)F)c(Cl)c2)C(=O)N2CCC[C@H]2C(=O)NC2(CCCC2)C(=O)N(C)[C@@H](C2CCCC2)C(=O)N(C)[C@H](C(=O)N2CCOCC2)CC(=O)N(C)[C@@H](CC(C)C)C(=O)N[C@@H]([C@@H](C)CC)C1=O [PP0274] ([NMeL]I[NPrGly][Aze][NPrPhe(4-CF3)][Sar][hPhe(3-Cl-4-CF3)]P[Ac5c][NMeGly(cPent)][NMeD]-Morpholide; lactam N-11) | B (a compound having 3 or more and less than 10 is denoted as B) | C (A compound having a KD ratio of 0.1 or more and less than 3 is denoted as C)
7 | CCCN1C(=O)[C@@H]2CCN2C(=O)CN(CC#N)C(=O)[C@H]([C@@H](C)CC)NC(=O)[C@H](CC(C)C)N(C)C(=O)C[C@@H](C(=O)N2CCOCC2)N(C)C(=O)[C@H](C2CCCC2)N(C)C(=O)C2(CCCC2)NC(=O)[C@@H]2CCCN2C(=O)[C@H](CCc2ccc(C(F)(F)F)c(Cl)c2)NC(=O)CN(C)C(=O)[C@@H]1Cc1ccc(C(F)(F)F)cc1 [PP0275] ([NMeL]I[X14][Aze][NPrPhe(4-CF3)][Sar][hPhe(3-Cl-4-CF3)]P[Ac5c][NMeGly(cPent)][NMeD]-Morpholide; lactam N-11) | C (A compound having a KD ratio of 0.1 or more and less than 3 is denoted as C) | C (A compound having a KD ratio of 0.1 or more and less than 3 is denoted as C)
8 | CCCN1C(=O)[C@@H]2CCN2C(=O)[C@H]2N(CC2(C)C)C(=O)[C@H]([C@@H](C)CC)NC(=O)[C@H](CC(C)C)N(C)C(=O)C[C@@H](C(=O)N2CCOCC2)N(C)C(=O)[C@H](C2CCCC2)N(C)C(=O)C2(CCCC2)NC(=O)[C@@H]2CCCN2C(=O)[C@H](CCc2ccc(C(F)(F)F)c(Cl)c2)NC(=O)CN(C)C(=O)[C@@H]1Cc1ccc(C(F)(F)F)cc1 [PP0277] ([NMeL]I[X46][Aze][NPrPhe(4-CF3)][Sar][hPhe(3-Cl-4-CF3)]P[Ac5c][NMeGly(cPent)][NMeD]-Morpholide; lactam N-11) | C (A compound having a KD ratio of 0.1 or more and less than 3 is denoted as C) | C (A compound having a KD ratio of 0.1 or more and less than 3 is denoted as C)
9 | CCCN1C(=O)[C@@H]2CCN2C(=O)[C@H](C)N(C)C(=O)[C@H]([C@@H](C)CC)NC(=O)[C@H](CC(C)C)N(C)C(=O)C[C@@H](C(=O)N2CCOCC2)N(C)C(=O)[C@H](C2CCCC2)N(C)C(=O)C2(CCCC2)NC(=O)[C@@H]2CCN2C(=O)[C@H](CCc2ccc(C(F)(F)F)c(Cl)c2)NC(=O)CN(C)C(=O)[C@@H]1Cc1ccc(C(F)(F)F)cc1 [PP0281] ([NMeL]I[NMeA][Aze][NPrPhe(4-CF3)][Sar][hPhe(3-Cl-4-CF3)][Aze][Ac5c][NMeGly(cPent)][NMeD]-Morpholide; lactam N-11) | C (A compound having a KD ratio of 0.1 or more and less than 3 is denoted as C) | C (A compound having a KD ratio of 0.1 or more and less than 3 is denoted as C)
10 | CCCN1C(=O)[C@@H]2CCN2C(=O)[C@H](C)N(C)C(=O)[C@H]([C@@H](C)CC)NC(=O)[C@H](CC(C)C)N(C)C(=O)C[C@@H](C(=O)N2CCOCC2)N(C)C(=O)[C@H](C2CCCC2)N(C)C(=O)C2(CCCC2)NC(=O)[C@@H]2CC3(CC3)CN2C(=O)[C@H](CCc2ccc(C(F)(F)F)c(Cl)c2)NC(=O)CN(C)C(=O)[C@@H]1Cc1ccc(C(F)(F)F)cc1 [PP0282] ([NMeL]I[NMeA][Aze][NPrPhe(4-CF3)][Sar][hPhe(3-Cl-4-CF3)][Pro(4-spirocPr)][Ac5c][NMeGly(cPent)][NMeD]-Morpholide; lactam N-11) | C (A compound having a KD ratio of 0.1 or more and less than 3 is denoted as C) | C (A compound having a KD ratio of 0.1 or more and less than 3 is denoted as C)
11 | CCCN1C(=O)[C@@H]2CCN2C(=O)[C@H](C)N(C)C(=O)[C@H]([C@@H](C)CC)NC(=O)[C@H](CC(C)C)N(C)C(=O)C[C@@H](C(=O)N2CCOCC2)N(C)C(=O)[C@H](C2CCCC2)N(C)C(=O)C2(CCCC2)NC(=O)[C@@H]2C[C@@H](OC)CN2C(=O)[C@H](CCc2ccc(C(F)(F)F)c(Cl)c2)NC(=O)CN(C)C(=O)[C@@H]1Cc1ccc(C(F)(F)F)cc1 [PP0283] ([NMeL]I[NMeA][Aze][NPrPhe(4-CF3)][Sar][hPhe(3-Cl-4-CF3)][Hyp](Me)[Ac5c][NMeGly(cPent)][NMeD]-Morpholide; lactam N-11) | C (A compound having a KD ratio of 0.1 or more and less than 3 is denoted as C) | C (A compound having a KD ratio of 0.1 or more and less than 3 is denoted as C)
12 | CCCN1C(=O)[C@@H]2CCN2C(=O)[C@H](C)N(C)C(=O)[C@H]([C@@H](C)CC)NC(=O)[C@H](CC(C)C)N(C)C(=O)C[C@@H](C(=O)N2CCOCC2)N(C)C(=O)[C@H](C2CCCC2)N(C)C(=O)C2(CCCC2)NC(=O)[C@@H]2CCCCN2C(=O)[C@H](CCc2ccc(C(F)(F)F)c(Cl)c2)NC(=O)CN(C)C(=O)[C@@H]1Cc1ccc(C(F)(F)F)cc1 [PP0284] ([NMeL]I[NMeA][Aze][NPrPhe(4-CF3)][Sar][hPhe(3-Cl-4-CF3)][Pip][Ac5c][NMeGly(cPent)][NMeD]-Morpholide; lactam N-11) | B (a compound having 3 or more and less than 10 is denoted as B) | C (A compound having a KD ratio of 0.1 or more and less than 3 is denoted as C)
